Measurements as given in patent US20240358862A1, “Synthesis Method and Application of a Near-infrared Probe GGa-ICG specific binding to PSCA” (Guangzhou Shiyun Biotechnology Co., Ltd, priority 2022, published 2024).

Key:
[1] = Fluorescence stability detection; format: physicochemical
Description: Stability testing was divided into two groups: 1) stability testing under excitation wavelength and 2) stability testing of GGa-ICG under visible light. Excitation wavelength of 780 nm (GGa-ICG, ssDNA-ICG, and ICG) and visible light were used to excite the fluorescence probe GGa-ICG. Fluorescence detection was performed, and the changes in fluorescence intensity were recorded using a fluorescence spectrophotometer.

PC tissues = test: GGa-ICG staining of PC clinical tissue sections (confocal fluorescence microscopy); settings: 200 nM, paraffin sections
Description: Methods: Paraffin tissue blocks were provided by the Pathology Department of the Third Affiliated Hospital of Sun Yat-sen University (Guangzhou, China). Tissue sections were deparaffinized twice in xylene for 10 min each time, followed by rehydration in a series of graded ethanol (100%, 95%, and 70%) and rinsed in deionized water. After washing in PBS for 5 min, the sections were incubated in TE buffer (10 mM Tris, 1 mM EDTA, pH=8.0, per liter of ddH2O) and boiled in a microwave oven until boiling, then kept at 95° C. for 15 min to retrieve the antigen. The sections were allowed to cool naturally to room temperature and then washed three times with fresh PBS. After histological processing, tissue sections were incubated with binding buffer containing 20% FBS and 0.1 mg/mL Herring Sperm DNA at room temperature for 60 min, followed by incubation with 200 nM GGa-ICG in the binding buffer at 4° C. for 60 min. The sections were washed three times with fresh PBS, dehydrated, and sealed with Antifade PVA mounting medium. Finally, stained sections were imaged using a spinning disk confocal fluorescence microscope (Olympus IX71, Japan). Adjacent sections were stained with […] HE staining. Fluorescence signals were observed using a 40× objective lens (NA 0.90, UPLSAPO, Olympus, Japan). Images were analyzed using FV10-ASW 3.1 software.

[2] = Water solubility compared to ICG; format: physicochemical
RWPE-1, MCF2, Hela cells = test: Cell binding by fluorescence microscope / flow cytometry, non-tumour prostate and other cells; format: cell-based, human; settings: 200 nM probe
Description: Therefore, 200 nM of GGa-ICG and ssDNA-ICG were used to confirm their specific binding. The method is as follows: • a. The human prostate cancer cell lines PC-3, DU145, LNCaP, 22RV1, immortalized normal human prostate epithelial cell line RWPE1, and human cervical cancer cell line Hela, as well as MCF7 cells obtained from the American Type Culture Collection (ATCC), were used in this study. All cell lines were cultured at 37° C. and 5% CO2 in a humidified environment. […]
After the cells reach a confluency of over 80%, they were passaged and grown for 24-48 hours until they reached a confluency of over 50%. They were then washed once with PBS (without Ca and Mg ions), twice with cold washing buffer, and incubated at room temperature (4° C. for the internalization inhibition group) for 30 minutes with the sample buffer containing near-infrared fluorescence probes GGa-ICG, ssDNA-ICG, and ICG to a final concentration of 200 nM (or as specified). The cells were observed under a fluorescence microscope or analyzed by flow cytometry after digestion with trypsin without EDTA. […]

PSCA [3] = target: T1, PSCA (Homo sapiens, UniProt O43653); test: Binding site of GGa-ICG on PSCA protein; settings: sequence ALQPGTALLCYSCKA
T1 sequence (O43653 12-83): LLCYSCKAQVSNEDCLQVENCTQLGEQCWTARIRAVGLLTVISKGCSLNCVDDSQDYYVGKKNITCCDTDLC

[4] = tested on: subcutaneous transplantation tumor models; test: In vivo visualization in subcutaneous transplantation tumor models of other cancers
Source text: PSCA is expressed at high levels in various tumors such as prostate cancer, bladder cancer, kidney cancer, breast cancer, colon cancer, lung cancer, pancreatic cancer, etc. Using the aforementioned method, T24 bladder cancer cells, Cakil renal cancer cells, MDA-MB468 breast cancer cells, HT29 colon cancer cells, PANC1 pancreatic cancer cells, NCI-H460 lung cancer cells, and other cell lines were stained with GGa-ICG for flow cytometry analysis. Positive cell lines were used to establish subcutaneous transplantation tumor models to detect the visualization of GGa-ICG in vivo.

[5] = Toxicity test of GGa-ICG (serum enzymatic testing); format: in vivo; settings: serum of nude mice 72 hours after injection
Description: Blood serum was collected from nude mice injected with GGa-ICG for 72 hours and subjected to enzymatic testing.

PSCA [6] = target: T1, PSCA; test: Pull-down assay; format: binding; set-up: Membrane proteins of PC-3 cells were extracted; endogenous in cells; host or cells: PC-3; settings: PC-3 membrane proteins, Western blotting with anti-PSCA antibody
Description: Membrane proteins of PC-3 cells were extracted and incubated with agarose beads, agarose-conjugated GGa-ICG, or an agarose-conjugated library. The resulting pull-down mixture containing proteins was analyzed by Western blotting using a PSCA-specific antibody. The captured proteins were analyzed by SDS-PAGE gel and Coomassie blue staining, followed by Western blotting using an anti-PSCA antibody.

## GGa-ICG: near-infrared probe: PSCA-binding nucleic acid aptamer GGa linked at 3′ to an ICG derivative dye (DNA TGCCACTACAGCTGGTTCGGTTTGGTGACTTCGTTCTTCGTTGTGGT; 3'-ICG dye, further chemistry not given here)
[1]; after excitation at 780 nm
  time after which fluorescence was extinguished: 1 h
[1]; visible light, during the detection time
  fluorescence quenching under visible light excitation: did not exhibit fluorescence quenching
PC tissues
  binding rate with PC tissues: 82.5%
  fluorescence signal in PC and metastatic tissues: Strong fluorescence signals
  fluorescence signal in normal tissues: No fluorescence signal
[2]
  water solubility compared to existing ICG: improved
RWPE-1, MCF2, Hela cells
  binding affinity to RWPE-1, MCF2, Hela cells: significantly reduced binding affinity
PSCA [3]
  binding site on PSCA protein (amino acids): 14-28
[4]
  in vivo binding in multiple cancer types: consistent with PSCA expression
[5]
  in vivo toxicity (serological test): did not show in vivo toxicity
PSCA [6]
  pull-down of PSCA: easily pulled down
